The EC50 is the midpoint of the concentration-response curve. For orientation: bioavailability means dose-corrected exposure relative to a reference, in per cent. As a reminder, the clearance is the rate of elimination divided by the concentration. Low readings indicate inefficient removal, high ones efficient removal.

32 compounds from patent publication US10647710B2, “Thiazole derivative and applications thereof” (Medshine Discovery Inc., priority 2017, dated 2020) can be followed below.

Where two headings read alike, the source gives them in different places. Where only a bound is given, the exact number is not on record here.

Data set [1] has as its system herpes simplex virus type 1 (HSV-1) GHSV-UL46 strain. Put plainly: HSV-1 cytopathic effect (CPE) assay. Format: cell-based. The method, then: To evaluate the antiviral activity of compounds against the herpes simplex virus type 1 (HSV-1) GHSV-UL46 strain in the cytopathic effect (CPE) assay.
Virus: HSV-1 GHSV-UL46, ATCC # VR-1544
Cells: African green monkey kidney cell Vero E6, obtained from Wuhan Institute of Virology, Chinese Academy of Sciences.
1.4. The cells were diluted to 1.33×10^5 cells/ml using cytopathic assay medium. The diluted cell suspension was added to a 384-well plate (Corning #3701) by using Multidrop, and 30 μl of the diluted cell suspension (4000 cells) per well were added.
2.2. Compounds were added to cell-inoculated 384-well plates using an ECHO 555 liquid workstation. Eight concentrations were tested in duplicate for each assay compound. For the cell control wells, neither compound nor virus was added. For the virus control wells, no compound was added. The final concentration of DMSO in all the wells was 0.5%.
2.3. The virus was diluted with the assay medium at an inoculation amount of 1.5 TCID90/well, 30 μl. The assay medium was added to the cell control wells with Multidrop, 30 μl per well. Then the diluted virus was added to the compound test wells and the virus control wells with Multidrop, 30 μl per well.
2.4. The cell plates were placed and cultured in a 37° C., CO2 cell incubator for 5 days.
3.2. CCK8 was added to the cell plate with Multidrop, 6 μl per well.
3.4. The absorbance of each well of the cell plate was read with a microplate reader at a wavelength of 450 nm, and 630 nm was used as the reference wavelength. The raw data were obtained by substrating the absorbance at 630 nm from the absorbance at 450 nm (Raw data=OD450-OD630).
4.1. The antiviral activity (% Inhibition) of the assay compound was calculated using the following equation: […]
wherein, Sample is the absorbance of the compound test well; cell control is the average of the absorbances of the cell control wells; and virus control is the average of the absorbances of the virus control wells.
4.2. Dose-response curves were plotted using GraphPad Prism software and the half maximal effective concentration (EC50) of the assay compounds was determined.

Data set [2] in a line: Pharmacokinetics of compounds in mice in vivo. As to conditions: male, mouse, Balb/c mice; for bioavailability / AUC: oral administration (gavage) 1.0 mg/kg; for bioavailability: read-out: Bioavailability F; for AUC: read-out: Concentration Integral AUC. As for the experimental part:
Objective: To test the pharmacokinetics of compounds in mice in vivo.
Balb/c mice (male, 18-22 g, 6-8 weeks old, Shanghai Slack)
The pharmacokinetics profile of the compound in rodent was tested using a standard protocol after intravenous and oral administrations. The candidate compound was prepared as a corresponding solution, which was administered as a single intravenous injection (1.0 mg/kg, 5% DMSO/95% 20% hydroxypropyl-β-cyclodextrin) or gavage (1.0 mg/kg, 0.5% methyl Cellulose MC4000). The whole blood samples were collected within 24 hours, centrifuged at 3000 g for 15 minutes, and plasma samples were obtained by separating the supernatant. 4 times volume of acetonitrile solution containing an internal standard was added to precipitate proteins. After centrifugation, the supernatant was collected, to which an equal volume of water was added, and further centrifuged to collect the supernatant. The LC-MS/MS analysis method was used to quantitatively analyze the plasma concentration, and the pharmacokinetics parameters, such as peak concentration, peak time, clearance rate, half-life, area under the curve, and bioavailability were calculated.

Where [3] appears, read: Human alphaherpesvirus 1, Vero C1008, in Chlorocebus sabaeus, 120 h, read-out: HSV-1 cytopathic effect EC50, HSV-1 GHSV-UL46 in Vero E6 cells, 5 days culture, CCK8 readout.
The mark [4] stands for this setting: read-out: HSV-1 cytopathic effect EC50, HSV-1 GHSV-UL46 in Vero E6 cells, 5 days culture, CCK8 readout.

In the case of `Cc1nc(N(C)C(=O)C2Cc3ccc(Oc4ccccn4)cc3C2)sc1S(N)(=O)=O` (centres unmarked) [WX144], in data set [1] (setting [3]), the concentration giving a half-maximal response (EC50) worked out at 410 nM. Still for that read-out and setting: then `Cc1nc(N(C)C(=O)N2CCc3ccc(-c4ccccn4)cc3C2)sc1S(N)(=O)=O` [WX128], with 140 nM.

As to `Cc1cccc(-c2ccc3c(c2)C[C@@H](C(=O)N(C)c2nc(C)c(S(N)(=O)=O)s2)C3)n1` [WX146], the EC50 in data set [1] (setting [3]) amounted to 12 nM. The same measure, in the same setting: the value for `Cc1cccc(-c2ccc3c(c2)C[C@H](C(=O)N(C)c2nc(C)c(S(N)(=O)=O)s2)C3)n1` [WX147] was 780 nM; that for `Cc1nc(N(C)C(=O)N2Cc3ccc(-c4ccccn4)cc3C2)sc1S(N)(=O)=O` [WX042] was 42 nM; that for `Cc1nc(N(C)C(=O)[C@@H]2CCCc3cc(-c4ccccn4)ccc32)sc1S(N)(=O)=O` [WX030] was 950 nM. On to `Cc1nc(N(C)C(=O)Cc2ccc(-c3ccccn3)cc2)sc1S(N)(=O)=O` [Pritelivir, reference compound], for which, in data set [2] (in vivo), the bioavailability was determined as 100% and the AUC is 129 µM·h. This compound also showed a clearance in data set [2] (in vivo, single intravenous injection 1.0 mg/kg) of 0.4 mL/min/kg.

Turning to `Cc1nc(N(C)C(=O)C2COc3ccc(-c4ccccn4)cc3C2)sc1S(N)(=O)=O` (centres unmarked) [WX131], the EC50 in data set [1] (setting [3]) amounted to 130 nM. Same read-out and setting: the value for `Cc1nc(N(C)C(=O)C2CCc3ccc(-c4ccccn4)cc3C2)sc1S(N)(=O)=O` (centres unmarked) [WX133] was 140 nM.

For `Cc1nc(N(C)C(=O)[C@H]2Cc3ccc(-c4ncccc4F)cc3C2)sc1S(N)(=O)=O` [WX154], the EC50 in data set [1] (setting [3]) worked out at 310 nM. On the same count and under the same terms, the value for `Cc1nc(N(C)C(=O)[C@H]2CCc3cc(-c4ccccn4)ccc32)sc1S(N)(=O)=O` [WX018] was 250 nM; that for `Cc1nc(N(C)C(=O)[C@H]2CCCc3cc(-c4ccccn4)ccc32)sc1S(N)(=O)=O` [WX031] was 770 nM. With `Cc1nc(N(C)C(=O)C2Cc3ccc(-c4ccccn4)cc3C2)sc1S(N)(=O)=O` (single isomer, unassigned) [WX037], the EC50 in data set [1] (setting [3]) amounted to 7 nM. For the same compound, in data set [2] (plasma), the bioavailability was found to be 75% and the AUC amounted to 24.4 µM·h. Further, the clearance in data set [2] (plasma, single intravenous injection 1.0 mg/kg) stood at 1.2 mL/min/kg. The half-life in data set [2] (plasma, single intravenous injection 1.0 mg/kg, read-out: Half life T1/2 (converted)) is 6 h. Consider `Cc1nc(N(C)C(=O)[C@@H]2Cc3ccc(-c4ncccc4F)cc3C2)sc1S(N)(=O)=O` [WX155], for which, in data set [1] (setting [3]), the EC50 came out at 24 nM.

In the case of `Cc1nc(N(C)C(=O)C2Cc3cc(Cl)c(-c4ccccn4)cc3C2)sc1S(N)(=O)=O` (centres unmarked) [WX156], in data set [1] (setting [3]), the concentration giving a half-maximal response (EC50) turned out to be 650 nM. For `Cc1nc(N(C)C(=O)C2Cc3ccc(-c4nccs4)cc3C2)sc1S(N)(=O)=O` (centres unmarked) [WX130], the EC50 in data set [1] (setting [3]) was determined as 17 nM. On to `Cc1nc(N(C)C(=O)C2Cc3cc(F)c(-c4ccccn4)cc3C2)sc1S(N)(=O)=O` (centres unmarked) [WX159], for which the EC50 in data set [1] (setting [4]) was 17 nM. Turning to `CC(=O)OCC1(C(=O)N(C)c2nc(C)c(S(N)(=O)=O)s2)Cc2ccc(-c3ccccn3)cc2C1` (centres unmarked) [WX072], the EC50 in data set [1] (setting [3]) is 360 nM. For the compound `Cc1nc(N(C)C(=O)C2Cc3ccc(-c4cccc(N(C)C)n4)cc3C2)sc1S(=O)(=O)NC1CC1` (centres unmarked) [WX142], the EC50 in data set [1] (setting [3]) is 150 nM. Same read-out and setting: then `COc1cccc(-c2ccc3c(c2)CC(C(=O)N(C)c2nc(C)c(S(N)(=O)=O)s2)C3)n1` (centres unmarked) [WX129], with 46 nM. For the compound `Cc1nc(N(C)C(=O)C2Cc3cc(F)c(-c4ccccn4)cc3C2)sc1S(N)(=O)=O` (centres unmarked) [WX158], in data set [1] (setting [4]), the EC50 is over 1000 nM. In the case of `Cc1nc(N(C)C(=O)C2(C)Cc3ccc(-c4ccccn4)cc3C2)sc1S(N)(=O)=O` (centres unmarked) [WX074], the EC50 in data set [1] (setting [3]) was determined as 43 nM. The same measure, in the same setting: the value for `Cc1nc(N(C)C(=O)[C@H]2Cc3ccc(-c4cccc(N)n4)cc3C2)sc1S(=O)(=O)NC1CC1` [WX152] was 7 nM. Same read-out and setting: the value for `Cc1nc(N(C)C(=O)[C@H]2Cc3ccc(-c4cccc(N(C)C)n4)cc3C2)sc1S(N)(=O)=O` [WX148] was 44 nM; that for `Cc1nc(N(C)C(=O)C2Cc3ccc(-c4ccccn4)cc3C2)sc1S(N)(=O)=O` (centres unmarked) [WX036] was over 1000 nM. On the same count and under the same terms, the value for `Cc1nc(N(C)C(=O)[C@H]2Cc3ccc(-c4cccc(N)n4)cc3C2)sc1S(N)(=O)=O` [WX150] was 12 nM. `Cc1nc(N(C)C(=O)[C@@H]2CCc3cc(-c4ccccn4)ccc32)sc1S(N)(=O)=O` [WX017]: the EC50 in data set [1] (setting [3]) was found to be 46 nM. On the same count and under the same terms, then `Cc1nc(N(C)C(=O)[C@@H]2Cc3ccc(-c4cccc(N(C)C)n4)cc3C2)sc1S(N)(=O)=O` [WX149], with 550 nM.

With `Cc1nc(N(C)C(=O)C2Cc3ccc(-c4ccccn4)cc3C2)sc1S(=O)(=O)NC1CC1` (centres unmarked) [WX043], in data set [1] (setting [3]), the concentration giving a half-maximal response (EC50) is 9 nM.

`Cc1nc(N(C)C(=O)[C@@H]2Cc3ccc(-c4cccc(N)n4)cc3C2)sc1S(N)(=O)=O` [WX151]: in data set [1] (setting [3]), the EC50 was determined as 230 nM. The same measure, in the same setting: the value for `Cc1nc(N(C)C(=O)[C@@H]2Cc3ccc(-c4cccc(N)n4)cc3C2)sc1S(=O)(=O)NC1CC1` [WX153] was 810 nM; that for `Cc1nc(N(C)C(=O)C2(CO)Cc3ccc(-c4ccccn4)cc3C2)sc1S(N)(=O)=O` (centres unmarked) [WX073] was 120 nM.
